From patent publication EP4696306A1, “ADENOSINE TRIPHOSPHATE SECRETION INHIBITOR, HEPATIC STELLATE CELL ACTIVATION INHIBITOR, HEPATIC STELLATE CELL DEACTIVATOR, HEPATIC FIBROSIS THERAPEUTIC AGENT, NON-ALCOHOLIC STEATOHEPATITIS THERAPEUTIC AGENT, PSORIASIS THERAPEUTIC AGENT, AND USE OF COMPOUND FOR PRODUCING ADENOSINE TRIPHOSPHATE …” (KURUME UNIVERSITY, priority 2023, dated 2024)
Where a name gives a salt, the structure may show the parent alone.

How the values were obtained:
[1] = system: ATP transport activity in isolated chromaffin granule membranes; experiment: ATP transport (3H-ATP uptake) in chromaffin granule membrane vesicles; assay type: biochemical, bovine; conditions: N = 3
Method: (§1) Chromaffin granule membranes were prepared from adrenal glands collected from slaughtered cattle according to Reference A (Nathan Nelson et al., 1988, Chromaffin Granule Proton Pump, Methods in Enzymology, 157, 619-633). Chromaffin granule membranes prepared by sucrose density gradient centrifugation were suspended in 2 ml of SME buffer (20 mM MOPS-tris (pH 7.0), 0.3 M sucrose, 5 mM EDTA, 10 µg/ml leupeptin, and 10 µg/ml pepstatin) + 25% glycerol, and the resulting suspension was aliquoted and stored at -80°C. Under these conditions, the ATP transport activity, the V-ATPase activity, and the catecholamine transport activity remain fully active for at least one year.
An ATP transport inhibition experiment for the chromaffin granule membrane was carried out according to Reference B (Yoshinori Moriyama et al., 2022, Is the vesicular nucleotide transporter a molecular target of eicosapentaenoic acid?, Frontiers in Pharmacology, 103389). About 20 µg of chromaffin granule membranes were added to 0.5 ml of measurement buffer (20 mM MOPS-tris (pH 7.0), 0.3 M sucrose, 5 mM potassium chloride, 5 mM magnesium acetate, 5 mM creatine phosphate, 10 units of creatine kinase, and 1 mM ^3[H]-ATP [15 KBq/assay]), followed by incubation at 30°C for 1 hour. Through a Millipore MCE membrane filter with a pore size 0.45 µm, 0.2 ml of the reaction liquid was filtered by suction. Thereafter, the filter was washed with 10 ml of 20 mM MOPS-tris (pH 7.0), 0.3 M sucrose, 5 mM potassium chloride, and 5 mM magnesium acetate, and dissolved in 10 ml of Clear-sol II (manufactured by Nacalai Tesque, Inc.). The radioactivity was then measured using a liquid scintillation counter (N = 3).
The reaction was initiated by adding 50 mM ^3[H]-ATP to a final concentration of 1 mM. The 50 mM ^3[H]-ATP was prepared by mixing an ATP-tris solution (manufactured by Sigma-Aldrich) with [2,8-^3H] adenosine triphosphate tetrasodium salt (26.0 Ci/mmol) (manufactured by New England Nuclear). PEP was used as a test reagent, and pyruvic acid was used as a negative control. Five minutes before the addition of ATP, PEP or pyruvic acid, as a solution in 20 mM MOPS-tris (pH 7.0), 0.3 M sucrose, 5 mM potassium chloride, and 5 mM magnesium acetate, was added to the measurement liquid to a final PEP concentration of 0.02, 0.05, 0.1, 0.2, 0.4, or 1 mM, or to a final pyruvic acid concentration of 0.5 or 1 mM.
(§2) Chromaffin granule membrane vesicles were prepared in the same manner as in Example 5, and uptake of radiolabeled ATP into the vesicles was measured. Transport activity of catecholamine (dopamine) and ATP-dependent proton transport by V-ATPase were also measured in the same manner as in Example 5.

catecholamine transport = experiment: Catecholamine (3H-dopamine) transport in chromaffin granule membranes; assay type: biochemical, bovine; conditions: MANT-ATP; N = 3
Method: as §1
A catecholamine transport inhibition experiment was carried out in the same manner as the ATP transport experiment except that the experiment used a measurement liquid containing 20 mM MOPS-tris (pH 7.0), 0.1 M sucrose, 0.1 M potassium chloride, 5 mM magnesium acetate, and about 5 µg of chromaffin granule membranes. To 0.5 ml of the measurement liquid, 2 mM ATP was added, and the resulting mixture was incubated at 30°C for about 5 minutes, followed by addition of^3 [H]-dopamine thereto to a final concentration of 10 µM. After further incubation at 30°C for 15 minutes, 0.2 ml of the reaction liquid was subjected to suction filtration through a Millipore MCE membrane filter with a pore size of 0.45 µm, and the radioactivity on the filter was measured (N = 3). The substrate, ^3[H]-dopamine, was prepared by mixing 3,4-[RING-2,5,6-^3H]dihydroxyphenylethylamine (dopamine) (30 Ci/mmol) (manufactured by New England Nuclear) with dopamine hydrochloride (manufactured by LKT Laboratories) such that a final concentration of 0.1 mM was achieved during the use.
as §2

V-ATPase [2] = biological target: T1, V-ATPase (Bos taurus, UniProt P31404); experiment: ATP-dependent proton transport by V-ATPase (acridine orange / oxonol-V fluorescence quenching); assay type: biochemical, bovine
T1 construct: from tissue; host or cells: bovine adrenal medulla chromaffin granule membranes
T1 sequence (P31404 whole entry, looked up): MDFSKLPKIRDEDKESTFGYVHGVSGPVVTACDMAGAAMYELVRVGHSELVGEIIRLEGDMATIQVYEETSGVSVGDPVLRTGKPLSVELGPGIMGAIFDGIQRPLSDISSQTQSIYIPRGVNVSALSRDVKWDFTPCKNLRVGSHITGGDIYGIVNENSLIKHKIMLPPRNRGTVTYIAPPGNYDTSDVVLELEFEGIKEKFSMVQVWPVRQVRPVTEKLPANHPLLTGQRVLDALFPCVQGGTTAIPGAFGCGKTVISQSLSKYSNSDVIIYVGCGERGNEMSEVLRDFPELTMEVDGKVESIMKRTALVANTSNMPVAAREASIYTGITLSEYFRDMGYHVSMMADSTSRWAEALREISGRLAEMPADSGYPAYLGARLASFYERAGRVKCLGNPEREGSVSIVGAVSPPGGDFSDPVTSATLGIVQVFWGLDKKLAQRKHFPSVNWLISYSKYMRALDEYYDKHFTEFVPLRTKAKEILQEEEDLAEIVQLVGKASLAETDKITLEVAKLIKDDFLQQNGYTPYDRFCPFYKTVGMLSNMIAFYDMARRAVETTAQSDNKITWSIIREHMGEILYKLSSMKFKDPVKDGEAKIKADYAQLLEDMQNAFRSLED
Method: as §1
ATP-dependent proton transport by V-ATPase was measured according to Reference B. Proton transport activity was measured using a spectrofluorometer at excitation wavelength of 492 nm and a fluorescence wavelength 540 nm, wherein fluorescence quenching of acridine orange was used as an index (N = 2). The transmembrane potential generated was measured using a spectrofluorometer at an excitation wavelength of 580 nm and a fluorescence wavelength of 630 nm, wherein fluorescence quenching of oxonol-V was used as an index (N = 2). The acridine measurement liquid (2 ml) contained 20 mM MOPS-tris (pH 7.0), 0.2 M sucrose, 0.1 M potassium chloride, 5 mM magnesium acetate, 0.2 µg valinomycin, 2 µM acridine orange, and about 20 µg of chromaffin granules. The oxonol-V measurement liquid (2 ml) contained 20 mM MOPS-tris (pH 7.0), 0.3 M sucrose, 5 mM magnesium acetate, 5 µM oxonol-V, and about 20 µg of chromaffin granules.
as §2

[3] = system: ATP transport activity in isolated chromaffin granule membranes; experiment: ATP transport (3H-ATP uptake) in chromaffin granule membrane vesicles; assay type: biochemical, bovine; conditions: MANT-ATP; N = 3
[4] = system: human epidermal keratinocytes; experiment: ATP secretion promoted by ionomycin in keratinocytes; assay type: cell-based; conditions: 0.1 µM, 6 hours incubation, N = 3
Method: Human epidermal keratinocytes (Cryopreserved HEK, Lot 1758, Cell Applications Inc.) were cultured using an Epivita Keratinocyte Growth Medium Kit according to the manufacturer's instructions. The procedure was as follows. A supplement medium was added to a hydrocortisone-containing basal medium included in the medium preparation kit to prepare a complete medium. The medium in the dish was removed by aspiration. The cells were washed with 5 ml of BSS (Gbco), and then the BSS was removed by aspiration. After addition of 5 to 6 ml of trypsin/EDTA solution (Gbco), the dish was incubated at 37°C for 2 minutes. After addition of 5 ml of trypsin neutralization solution, the resulting cell suspension was transferred into two 15-ml Falcon tubes, and centrifuged at 200 × g for 5 minutes. The supernatant was removed by aspiration, and the pelleted cell cluster was suspended in 2 ml of the medium at 4.5 × 10^5 cells/ml. An aliquot of the resulting cell suspension was cryopreserved, while another aliquot was cultured and subjected to measurement.
ATP secretion by human epidermal keratinocytes (hereinafter referred to as "keratinocytes") was measured. Regarding control solutions, Krebs-Ringer HEPES supplemented with 0.2% BSA and 25 mM glucose (hereinafter also referred to as "Krebs/Iono(-)") was used as a negative control, and a solution prepared by adding 5 µM ionomycin to this solution (hereinafter also referred to as "Krebs/Iono(+)") was used as a positive control for ATP secretion. Ionomycin is a Ca^2+ ionophore. Addition of ionomycin to cells is known to promote influx of extracellular Ca^2+ into the cells to increase the intracellular Ca^2+ concentration, resulting in enhancement of ATP secretion. Test solutions were prepared by adding clodronate to Krebs/Iono(-) or Krebs/Iono(+) to a final concentration of 0.1 µM (hereinafter also referred to as "Clo/Iono(-)" or "Clo/Iono(+)", respectively) (N = 3).
Keratinocytes were cultured at 2.5 × 10^4 cells/well in a 24-well plate at 37°C in 5% CO2 for 4 days. The medium was removed by aspiration, replaced with Krebs/Iono(-) or Clo/Iono(-), and incubated at 37°C for 6 hours. These solutions were then removed by aspiration, and the content of each well incubated with Krebs/Iono(-) was replaced with 300 µl of a control solution (Krebs/Iono(-) or Krebs/Iono(+)), while the content of each well incubated with Clo/Iono(-) was replaced with 300 µl of a test solution (Clo/Iono(-) or Clo/Iono(+)). After further incubation at 37°C for 20 minutes, 200 µl of the supernatant was collected. The collected supernatant was immediately treated on a heat block at 95°C for 10 minutes, to inactivate ectonucleotidase. ATP in the supernatant was quantified using a Dojindo ATP assay kit - Luminescence (manufactured by Dojindo Laboratories).
After culturing keratinocytes, the medium was removed by aspiration, and replaced with Krebs/Iono(-), or Krebs/Iono(-) supplemented with 10 µM imeglimin, 0.1 µM EPA, 1 µM EPA, or 10 µM clodronate, followed by incubation for 6 hours. Subsequently, the solution was replaced with either a control solution (Krebs/Iono(-) or Krebs/Iono(+)) or a test solution (Krebs/Iono(+) supplemented with 10 µM imeglimin, 0.1 µM EPA, 1 µM EPA, or 10 µM clodronate), followed by incubation at 37°C for 20 minutes and then collection of 200 µl of the supernatant. The collected supernatant was immediately treated on a heat block at 95°C for 10 minutes to inactivate ectonucleotidase. ATP in the supernatant was quantified using a Dojindo ATP assay kit - Luminescence (manufactured by Dojindo Laboratories).
Keratinocytes were cultured in the same manner as in Example 1, and the medium was replaced with Krebs/Iono(-), Krebs/Iono(-) supplemented with 0.1 µM, 1 µM, or 10 µM imeglimin, or Krebs/Iono(-) supplemented with 0.1 µM, 1 µM, or 10 µM metformin, followed by incubation for 6 hours. […]

[5] = system: human epidermal keratinocytes; experiment: LPS-stimulated ATP secretion in keratinocytes; assay type: cell-based; conditions: 10 µM; 18 hours incubation, LPS 10 µg/ml 10 minutes; N = 8
Method: Keratinocytes were cultured in the same manner as in Example 1. Keratinocytes were cultured at 2.5 × 10^4 cells/well in a 24-well plate at 37°C in 5% CO2 for 4 days. The medium was replaced with a test solution (Hanks' balanced salt solution (HBSS) (manufactured by Gibco) supplemented with imeglimin, metformin, or clodronate), and then incubation was performed at 37°C in 5% CO2 for 18 hours. Thereafter, LPS (10 µg/ml) was added thereto, and incubation was further carried out for 10 minutes, followed by collection of 200 µl of the supernatant. The supernatant was immediately treated on a heat block at 95°C for 10 minutes, and ATP in the supernatant was quantified using an ATP Assay Kit - Luminescence (manufactured by Dojindo) (N = 8).

VNUT = biological target: T2, VNUT (Homo sapiens, UniProt Q9BYT1); experiment: Inhibitory effect on VNUT (data not shown); assay type: biochemical
T2 sequence (Q9BYT1 1-436): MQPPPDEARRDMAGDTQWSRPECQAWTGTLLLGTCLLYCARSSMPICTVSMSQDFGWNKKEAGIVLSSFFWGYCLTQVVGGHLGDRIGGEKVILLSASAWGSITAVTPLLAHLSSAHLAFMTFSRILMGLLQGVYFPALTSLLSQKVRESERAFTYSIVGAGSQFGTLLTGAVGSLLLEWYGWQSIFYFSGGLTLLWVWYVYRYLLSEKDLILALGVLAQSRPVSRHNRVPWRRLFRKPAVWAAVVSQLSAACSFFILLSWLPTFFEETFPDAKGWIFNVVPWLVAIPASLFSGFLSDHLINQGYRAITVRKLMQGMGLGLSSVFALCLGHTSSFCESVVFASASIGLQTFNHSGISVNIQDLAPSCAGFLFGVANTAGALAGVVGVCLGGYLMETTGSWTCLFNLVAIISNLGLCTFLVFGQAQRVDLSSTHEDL

V-ATPase [6] = biological target: V-ATPase (Homo sapiens, UniProt P38606); experiment: Inhibitory effect on V-ATPase (data not shown); assay type: biochemical
Chain of V-ATPase (Homo sapiens, UniProt P38606) (P38606 whole entry): as the sequence (P31404 whole entry, looked up) above, with R10L, V131I, N157S, I199V, S204T, E576D, V590L, A599S counted along it

SMILES | ID50 of ATP transport [1] | effect on the catecholamine transport system (catecholamine transport) | quenching of acridine orange fluorescence with MANT-ATP as substrate (V-ATPase [2]; addition of 0.1mM MANT-ATP, before addition of ATP) | effect on ATP-dependent proton transport by V-ATPase (V-ATPase [2]; concentrations of up to 100 µM, N = 1) | inhibition of ATP transport [3] | ATP secretion inhibitory effect, comparison and concentration dependence ([4]; 1 µM, 10 µM) | ATP secretion inhibitory effect [4] | ATP secretion upon LPS stimulation [5] | inhibitory effect on VNUT (VNUT) | inhibitory effect on V-ATPase (V-ATPase [6])
CNc1ccccc1C(=O)O[C@H]1[C@@H](O)[C@H](n2cnc3c(N)ncnc32)O[C@@H]1COP(=O)(O)OP(=O)(O)OP(=O)(O)O [MANT-ATP, 2'/3'-O-(N-methyl-anthraniloyl)-adenosine-5'-triphosphate triethylammonium salt] | about 30 mM | hardly affected | 34% | did not affect | strongly inhibited ATP transport | – | – | – | – | –
CN(C)C(=N)N=C(N)N [metformin] | – | – | – | – | – | decreased inhibitory effect at higher concentrations | exhibit an ATP secretion inhibitory effect | almost completely inhibited | neither imeglimin nor metformin exhibited a strong inhibitory effect | neither imeglimin nor metformin exhibited a strong inhibitory effect
